Laboratory results published in the Kinase Knowledgebase extract (Sharma et al. 2016).

Key:
PIK3CA (human) = PIK3CA (human) (UniProt P42336); test: Inhibition of PIK3CA Kinase Activity
PIK3CD (Human) = PIK3CD (Human) (UniProt O00329); test: Inhibition of PIK3CD Kinase Activity
Sequence of PIK3CD (Human) (O00329 whole entry, looked up): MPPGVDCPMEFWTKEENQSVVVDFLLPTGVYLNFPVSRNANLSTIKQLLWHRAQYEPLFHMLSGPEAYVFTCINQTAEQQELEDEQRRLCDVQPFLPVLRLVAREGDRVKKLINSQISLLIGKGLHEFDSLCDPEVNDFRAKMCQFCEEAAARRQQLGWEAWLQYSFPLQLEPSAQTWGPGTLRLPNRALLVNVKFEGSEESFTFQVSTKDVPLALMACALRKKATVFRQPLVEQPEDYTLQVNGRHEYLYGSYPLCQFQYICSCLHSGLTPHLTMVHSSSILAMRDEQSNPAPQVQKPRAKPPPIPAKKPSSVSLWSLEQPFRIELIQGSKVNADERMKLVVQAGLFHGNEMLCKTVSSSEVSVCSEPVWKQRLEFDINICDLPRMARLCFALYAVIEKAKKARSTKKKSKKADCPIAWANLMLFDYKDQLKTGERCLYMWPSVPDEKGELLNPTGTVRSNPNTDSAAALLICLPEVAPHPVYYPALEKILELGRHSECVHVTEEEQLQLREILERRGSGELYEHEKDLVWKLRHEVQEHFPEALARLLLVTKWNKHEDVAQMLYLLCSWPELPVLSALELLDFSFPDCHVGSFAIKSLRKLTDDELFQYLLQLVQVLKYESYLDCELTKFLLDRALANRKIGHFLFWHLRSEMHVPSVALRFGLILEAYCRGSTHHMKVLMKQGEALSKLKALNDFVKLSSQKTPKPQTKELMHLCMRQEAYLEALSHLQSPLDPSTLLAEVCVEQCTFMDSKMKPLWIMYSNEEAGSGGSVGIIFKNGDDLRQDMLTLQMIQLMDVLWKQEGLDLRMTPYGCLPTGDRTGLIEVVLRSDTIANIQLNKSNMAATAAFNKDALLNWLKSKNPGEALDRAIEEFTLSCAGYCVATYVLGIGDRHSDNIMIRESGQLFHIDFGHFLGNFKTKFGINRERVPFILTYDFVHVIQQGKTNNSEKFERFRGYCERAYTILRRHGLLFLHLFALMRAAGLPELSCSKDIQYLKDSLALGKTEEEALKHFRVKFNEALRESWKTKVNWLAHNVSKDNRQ

Sequence of PIK3CA (human) (P42336 whole entry, looked up): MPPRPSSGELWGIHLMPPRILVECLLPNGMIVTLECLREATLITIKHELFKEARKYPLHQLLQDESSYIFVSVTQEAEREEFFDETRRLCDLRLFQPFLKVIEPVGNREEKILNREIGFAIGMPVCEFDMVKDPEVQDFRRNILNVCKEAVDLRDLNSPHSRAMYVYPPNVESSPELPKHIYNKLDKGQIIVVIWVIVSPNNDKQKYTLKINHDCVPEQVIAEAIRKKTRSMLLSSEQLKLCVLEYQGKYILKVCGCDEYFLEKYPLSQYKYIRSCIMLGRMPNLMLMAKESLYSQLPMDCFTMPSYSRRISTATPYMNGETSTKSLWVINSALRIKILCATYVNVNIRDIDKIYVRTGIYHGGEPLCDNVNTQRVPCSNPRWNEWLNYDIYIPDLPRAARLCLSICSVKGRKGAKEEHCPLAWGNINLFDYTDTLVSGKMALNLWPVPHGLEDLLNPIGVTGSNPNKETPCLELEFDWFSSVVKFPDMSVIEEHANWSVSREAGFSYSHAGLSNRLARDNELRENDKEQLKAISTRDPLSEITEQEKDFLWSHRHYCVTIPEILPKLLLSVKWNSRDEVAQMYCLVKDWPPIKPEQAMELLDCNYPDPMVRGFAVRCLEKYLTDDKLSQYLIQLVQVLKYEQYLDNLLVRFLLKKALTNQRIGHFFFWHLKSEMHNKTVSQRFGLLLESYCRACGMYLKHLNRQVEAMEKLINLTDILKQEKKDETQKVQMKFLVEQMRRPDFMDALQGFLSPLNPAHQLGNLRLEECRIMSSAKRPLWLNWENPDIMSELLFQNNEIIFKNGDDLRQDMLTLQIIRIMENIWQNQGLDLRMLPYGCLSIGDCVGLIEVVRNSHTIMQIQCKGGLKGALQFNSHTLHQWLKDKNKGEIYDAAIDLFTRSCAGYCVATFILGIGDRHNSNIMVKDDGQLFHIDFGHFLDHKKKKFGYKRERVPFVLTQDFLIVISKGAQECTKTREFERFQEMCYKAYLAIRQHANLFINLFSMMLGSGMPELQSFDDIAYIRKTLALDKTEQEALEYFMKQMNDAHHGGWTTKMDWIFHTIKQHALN

## CNCCN(C)c1ccc([N+](=O)[O-])cc1S(=O)(=O)NN=C(C)c1cnn2ccc(Br)cc12
PIK3CA (human)
  IC50: 57 nM

## CNCCN(C)c1ccc([N+](=O)[O-])cc1S(=O)(=O)NN=C(C)c1cnn2ccc(C#N)cc12
PIK3CA (human)
  IC50: 82 nM
PIK3CD (Human)
  IC50: 390 nM

## CC(=NNS(=O)(=O)c1cc([N+](=O)[O-])ccc1N(C)CCN1CCN(S(C)(=O)=O)CC1)c1cnn2ccc(Br)cc12.CCCCCC
PIK3CA (human)
  IC50: 42 nM

## CC(=NNS(=O)(=O)c1cc([N+](=O)[O-])ccc1N(C)CCn1ccnc1)c1cnn2ccc(C#N)cc12
PIK3CA (human)
  IC50: 20 nM
PIK3CD (Human)
  IC50: 860 nM

## CC(=NNS(=O)(=O)c1cc([N+](=O)[O-])ccc1N(C)Cc1cccnc1)c1cnn2ccc(Br)cc12
PIK3CA (human)
  IC50: 53 nM

## CC(=NNS(=O)(=O)c1cc([N+](=O)[O-])ccc1N(C)CCN1CCCCC1)c1cnn2ccc(C#N)cc12
PIK3CA (human)
  IC50: 55 nM

## CC(=NNS(=O)(=O)c1cc([N+](=O)[O-])ccc1N(C)CCN)c1cnn2ccc(C#N)cc12.CCCCCC
PIK3CA (human)
  IC50: 340 nM

## CCC(=NNS(=O)(=O)c1cc([N+](=O)[O-])ccc1C)c1cnn2ccc(C#N)cc12
PIK3CA (human)
  IC50: 9.8 nM

## CC(=NN(C)S(=O)(=O)c1cc([N+](=O)[O-])ccc1N(C)CCN(C)C)c1cnn2ccc(C#N)cc12
PIK3CA (human)
  IC50: 330 nM
PIK3CD (Human)
  IC50: 660 nM

## CC(=NNS(=O)(=O)c1cc([N+](=O)[O-])ccc1N(C)CCc1c[nH]cn1)c1cnn2ccc(C#N)cc12.CCCCCC
PIK3CA (human)
  IC50: 33 nM
PIK3CD (Human)
  IC50: 170 nM

## CC(=NNS(=O)(=O)c1cc([N+](=O)[O-])ccc1N(C)CCc1ccncc1)c1cnn2ccc(Br)cc12
PIK3CA (human)
  IC50: 44 nM

## CC(=NN(C)S(=O)(=O)c1cc([N+](=O)[O-])ccc1N(C)Cc1ccccn1)c1cnn2ccc(C#N)cc12
PIK3CA (human)
  IC50: 5.2 nM
PIK3CD (Human)
  IC50: 580 nM

## CC(=NNS(=O)(=O)c1cc([N+](=O)[O-])ccc1N(C)CCCN1CCOCC1)c1cnn2ccc(C#N)cc12
PIK3CA (human)
  IC50: 330 nM

## CC(=NNS(=O)(=O)c1cc([N+](=O)[O-])ccc1F)c1cnn2ccc(Br)cc12
PIK3CA (human)
  IC50: 320 nM
PIK3CD (Human)
  IC50: 500 nM

## CC(=NNS(=O)(=O)c1cc([N+](=O)[O-])ccc1N(C)CCCN1CCOCC1)c1cnn2ccc(Br)cc12
PIK3CA (human)
  IC50: 450 nM

## CC(=NNS(=O)(=O)c1cc([N+](=O)[O-])ccc1N(C)Cc1ccncc1)c1cnn2ccc(C#N)cc12
PIK3CA (human)
  IC50: 40 nM
PIK3CD (Human)
  IC50: 330 nM

## CC(=NNS(=O)(=O)c1cc([N+](=O)[O-])ccc1N(C)CCn1ccnc1)c1cnn2ccc(Br)cc12
PIK3CA (human)
  IC50: 92 nM

## CC(=NNS(=O)(=O)c1cc([N+](=O)[O-])ccc1N(C)Cc1ccncc1)c1cnn2ccc(Br)cc12
PIK3CA (human)
  IC50: 200 nM

## CC(=NNS(=O)(=O)c1cc([N+](=O)[O-])ccc1N(C)CCc1ccccn1)c1cnn2ccc(Br)cc12
PIK3CA (human)
  IC50: 90 nM

## CCN(CC)CCN(C)c1ccc([N+](=O)[O-])cc1S(=O)(=O)NN=C(C)c1cnn2ccc(C#N)cc12
PIK3CA (human)
  IC50: 140 nM

## CC(=NNS(=O)(=O)c1cc([N+](=O)[O-])ccc1N(C)CCN1CCN(S(C)(=O)=O)CC1)c1cnn2ccc(C#N)cc12
PIK3CA (human)
  IC50: 22 nM
PIK3CD (Human)
  IC50: 220 nM

## CC(=NNS(=O)(=O)c1cc([N+](=O)[O-])ccc1C)c1cnn2ccc(C#N)cc12
PIK3CA (human)
  IC50: 7.3 nM

## CC(=NNS(=O)(=O)c1cc([N+](=O)[O-])ccc1N(C)CCc1ccccn1)c1cnn2ccc(C#N)cc12
PIK3CA (human)
  IC50: 23 nM

## CC(=NNS(=O)(=O)c1cc([N+](=O)[O-])ccc1F)c1cnc2ccc(Br)cn12
PIK3CA (human)
  IC50: 300 nM

## CC(=NN(C)S(=O)(=O)c1cc([N+](=O)[O-])ccc1N(C)CCc1ccccn1)c1cnn2ccc(C#N)cc12
PIK3CA (human)
  IC50: 480 nM

## CC(=NNS(=O)(=O)c1cc([N+](=O)[O-])ccc1C)c1cnn2ccc(Br)cc12.CCCCCC
PIK3CA (human)
  IC50: 30 nM
PIK3CD (Human)
  IC50: 220 nM

## CC(=NNS(=O)(=O)c1cc([N+](=O)[O-])ccc1N(C)CCc1ccncc1)c1cnn2ccc(C#N)cc12
PIK3CA (human)
  IC50: 49 nM
PIK3CD (Human)
  IC50: 420 nM

## CC(=NNS(=O)(=O)c1cc([N+](=O)[O-])ccc1N(C)CCc1c[nH]cn1)c1cnn2ccc(Br)cc12
PIK3CA (human)
  IC50: 160 nM

## CC(=NN(C)S(=O)(=O)c1cc([N+](=O)[O-])ccc1N(C)CCN1CCCCC1)c1cnn2ccc(C#N)cc12
PIK3CA (human)
  IC50: 240 nM

## CC(=NNS(=O)(=O)c1cc([N+](=O)[O-])ccc1N(C)CCN(C)C)c1cnn2ccc(C#N)cc12.CCCCCC
PIK3CA (human)
  IC50: 51 nM
PIK3CD (Human)
  IC50: 680 nM

## CC(=NNS(=O)(=O)c1cc([N+](=O)[O-])ccc1N(C)Cc1ccccn1)c1cnn2ccc(Br)cc12
PIK3CA (human)
  IC50: 7.3 nM
PIK3CD (Human)
  IC50: 230 nM

## CCCCCC.CCN(CC)CCN(C)c1ccc([N+](=O)[O-])cc1S(=O)(=O)NN=C(C)c1cnn2ccc(Br)cc12
PIK3CA (human)
  IC50: 230 nM

## CC(=NNS(=O)(=O)c1cc([N+](=O)[O-])ccc1N(C)CCCN(C)C)c1cnn2ccc(C#N)cc12
PIK3CA (human)
  IC50: 100 nM

## CC(=NNS(=O)(=O)c1cc([N+](=O)[O-])ccc1N(C)CCN(C)C)c1cnc2ccc(Br)cn12
PIK3CA (human)
  IC50: 330 nM

## CC(=NNS(=O)(=O)c1cc([N+](=O)[O-])ccc1N(C)Cc1ccccn1)c1cnn2ccc(C#N)cc12
PIK3CA (human)
  IC50: 4.8 nM
PIK3CD (Human)
  IC50: 11 nM

## Cc1ccc([N+](=O)[O-])cc1S(=O)(=O)NN=C(c1cnn2ccc(C#N)cc12)C(C)C
PIK3CA (human)
  IC50: 39 nM
PIK3CD (Human)
  IC50: 310 nM

## CCN(CC)CCN(C)c1ccc([N+](=O)[O-])cc1S(=O)(=O)N(C)N=C(C)c1cnn2ccc(C#N)cc12
PIK3CA (human)
  IC50: 460 nM
